From patent publication US20240270762A1, “PENICILLIN-BINDING PROTEIN INHIBITORS” (priority 2021, published 2024)
Converted amounts (≈) assume the structure as drawn.

What was measured:
[1] = system: B. humptydooensis ATCC BAA-2767; test: microbe, parasite or virus in culture; assay type: cell-based; conditions: Burkholderia humptydooensis, ATCCBAA2767, read-out: Minimum inhibitory concentration (MIC), B. humptydooensis ATCC BAA-2767
A. baumannii CDC-0083 = test: microbe, parasite or virus in culture; assay type: cell-based; conditions: Acinetobacter baumannii, CDC0083, read-out: MIC, A. baumannii CDC-0083
A. baumannii PBP1a = molecular target: T1, A. baumannii PBP1a (Acinetobacter baumannii, UniProt A0ABX6CK30); test: Bocillin-FL competition binding via gel filtration, A. baumannii PBP1a; conditions: competition binding assay using Bocillin-FL via gel filtration; read-out: A. baumannii PBP1a Potency
T1 sequence (A0ABX6CK30 1-851): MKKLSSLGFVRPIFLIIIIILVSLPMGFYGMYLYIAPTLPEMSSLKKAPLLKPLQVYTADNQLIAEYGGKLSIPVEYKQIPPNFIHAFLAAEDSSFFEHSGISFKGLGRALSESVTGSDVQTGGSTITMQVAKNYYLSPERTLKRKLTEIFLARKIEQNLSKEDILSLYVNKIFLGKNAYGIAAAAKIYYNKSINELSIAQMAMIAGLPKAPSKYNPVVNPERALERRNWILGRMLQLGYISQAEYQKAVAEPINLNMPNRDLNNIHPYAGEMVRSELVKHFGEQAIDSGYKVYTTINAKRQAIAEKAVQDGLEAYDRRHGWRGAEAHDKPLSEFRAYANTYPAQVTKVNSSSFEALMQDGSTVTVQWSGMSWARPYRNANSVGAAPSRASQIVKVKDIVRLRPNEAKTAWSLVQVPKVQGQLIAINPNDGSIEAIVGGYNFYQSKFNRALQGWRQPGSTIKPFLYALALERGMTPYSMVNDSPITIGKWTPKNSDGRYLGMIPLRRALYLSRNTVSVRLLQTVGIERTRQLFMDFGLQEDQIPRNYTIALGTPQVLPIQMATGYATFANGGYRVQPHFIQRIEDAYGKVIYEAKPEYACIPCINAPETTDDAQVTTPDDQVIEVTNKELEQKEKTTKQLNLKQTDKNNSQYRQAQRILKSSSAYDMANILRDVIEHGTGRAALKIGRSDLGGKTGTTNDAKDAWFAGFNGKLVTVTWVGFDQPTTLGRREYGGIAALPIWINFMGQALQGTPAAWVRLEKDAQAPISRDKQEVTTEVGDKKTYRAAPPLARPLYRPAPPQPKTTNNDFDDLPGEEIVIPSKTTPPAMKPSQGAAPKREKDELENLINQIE
Procedure, shortened: (§1)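 Enzyme pre-incubated with increasing inhibitor concentrations, then Bocillin-FL added for 15 min further incubation. Bocillin-FL-bound PBP separated by gel filtration and fluorescence read. EC50 from fitting fraction PBP bound vs inhibitor concentration to a Hill-type equation (ymin, ymax, n).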

P. aeruginosa CDC-0054 = test: microbe, parasite or virus in culture; assay type: cell-based; conditions: Pseudomonas aeruginosa, CDC0054, read-out: Minimum inhibitory concentration, P. aeruginosa CDC-0054
P. aeruginosa CDC-0110 = test: microbe, parasite or virus in culture; assay type: cell-based; conditions: Pseudomonas aeruginosa, CDC0110, read-out: Minimum inhibitory concentration, P. aeruginosa CDC-0110
B. pseudomallei Bp82 = test: microbe, parasite or virus in culture; assay type: cell-based; conditions: Burkholderia pseudomallei, BP82, read-out: Minimum inhibitory concentration, B. pseudomallei Bp82
N. gonorrhoeae MS11 = test: Liquid broth MIC in Fastidious broth; conditions: Neisseria gonorrhoeae, MS11, read-out: Minimum Inhibitory Concentration (MIC), N. gonorrhoeae MS11
A. baumannii PBP2 = A. baumannii PBP2 (Acinetobacter baumannii, UniProt D0C8Z9); test: Bocillin-FL competition binding via gel filtration, A. baumannii PBP2
Chain of A. baumannii PBP2 (D0C8Z9 whole entry): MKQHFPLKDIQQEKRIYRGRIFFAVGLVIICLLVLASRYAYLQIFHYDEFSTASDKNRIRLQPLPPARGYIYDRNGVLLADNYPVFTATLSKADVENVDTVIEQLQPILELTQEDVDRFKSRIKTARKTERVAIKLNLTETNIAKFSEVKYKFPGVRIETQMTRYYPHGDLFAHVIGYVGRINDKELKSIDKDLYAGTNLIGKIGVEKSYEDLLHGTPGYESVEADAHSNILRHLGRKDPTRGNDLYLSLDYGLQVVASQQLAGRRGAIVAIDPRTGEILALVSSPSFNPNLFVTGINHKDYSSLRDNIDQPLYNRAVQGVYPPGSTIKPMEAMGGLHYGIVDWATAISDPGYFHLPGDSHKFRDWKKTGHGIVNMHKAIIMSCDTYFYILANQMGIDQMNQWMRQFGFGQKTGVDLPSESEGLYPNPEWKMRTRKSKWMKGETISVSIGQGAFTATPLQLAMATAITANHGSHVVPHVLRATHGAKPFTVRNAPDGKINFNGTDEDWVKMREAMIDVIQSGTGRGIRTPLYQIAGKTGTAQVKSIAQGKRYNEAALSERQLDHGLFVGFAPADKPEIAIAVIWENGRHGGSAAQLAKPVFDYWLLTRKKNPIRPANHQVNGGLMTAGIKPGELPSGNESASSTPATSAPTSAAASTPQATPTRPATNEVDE
Procedure, shortened: as §1

A. baumannii ATCC 19606 = test: microbe, parasite or virus in culture; assay type: cell-based; conditions: Acinetobacter baumannii, ATCC19606, read-out: MIC, A. baumannii ATCC 19606
P. aeruginosa ATCC 35151 = test: microbe, parasite or virus in culture; assay type: cell-based; conditions: Pseudomonas aeruginosa, ATCC35151, read-out: Minimum inhibitory concentration, P. aeruginosa ATCC 35151
P. aeruginosa ATCC 27853 = test: microbe, parasite or virus in culture; assay type: cell-based; conditions: Pseudomonas aeruginosa, ATCC27853, read-out: Minimum inhibitory concentration, P. aeruginosa ATCC 27853
N. gonorrhoeae CDC-0197 = test: Liquid broth MIC in Fastidious broth; conditions: Neisseria gonorrhoeae, CDC0197, read-out: Minimum Inhibitory Concentration (MIC), N. gonorrhoeae CDC-0197
[2] = system: P. aeruginosa (ΔmexAB-oprM); test: Broth microdilution MIC in iron-depleted CAMHB (IDM); assay type: cell-based; conditions: Pseudomonas aeruginosa; iron-depleted CAMHB (IDM); […]; read-out: Minimum inhibitory concentration, P. aeruginosa ΔmexAB-oprM
[3] = system: B. thailandensis ATCC 700388; test: microbe, parasite or virus in culture; assay type: cell-based; conditions: Burkholderia thailandensis, ATCC700388, read-out: Minimum inhibitory concentration (MIC), B. thailandensis ATCC 700388
A. baumannii CDC-0045 = test: microbe, parasite or virus in culture; assay type: cell-based; conditions: Acinetobacter baumannii, CDC0045, read-out: MIC, A. baumannii CDC-0045

## O=C(NCCCN1CCN(C(=O)NC(C(=O)N[C@H]2Cc3ccc(F)c(C(=O)O)c3OB2O)c2cc(F)c(O)c(O)c2Cl)C(=O)C1=O)Nc1ccncc1 (stereo partly drawn) [Example 228, (3R)-3-(2-(2-chloro-5-fluoro-3,4-dihydroxyphenyl)-2-(2,3-dioxo-4-(3-(3-(pyridin-4-yl)ureido)propyl)piperazine-1-carboxamido)acetamido)-7-fluoro-2-hydroxy-3,4-dihydro-2H-benzo[e][1,2]oxaborinine-8-carboxylic acid]
[1]
  MIC: < 1 µg/mL
A. baumannii CDC-0083
  MIC: < 1 µg/mL
A. baumannii PBP1a
  EC50: 10 to 50 µM
P. aeruginosa CDC-0054
  MIC: < 1 µg/mL
P. aeruginosa CDC-0110
  MIC: < 1 µg/mL
B. pseudomallei Bp82
  MIC: < 1 µg/mL
N. gonorrhoeae MS11
  MIC: > 64 µg/mL
A. baumannii PBP2
  EC50: 10 to 50 µM
A. baumannii ATCC 19606
  MIC: < 1 µg/mL
P. aeruginosa ATCC 35151
  MIC: < 1 µg/mL
P. aeruginosa ATCC 27853
  MIC: < 1 µg/mL
N. gonorrhoeae CDC-0197
  MIC: > 64 µg/mL
[2]
  MIC: < 1 µg/mL
[3]
  MIC: < 1 µg/mL
A. baumannii CDC-0045
  MIC: < 1 µg/mL

## O=C(NCCCN1CCN(C(=O)NC(C(=O)N[C@H]2Cc3ccc(F)c(C(=O)O)c3OB2O)c2cc(F)c(O)c(O)c2Cl)C(=O)C1=O)c1ccc(O)cc1 (stereo partly drawn) [Example 203, (3R)-3-(2-(2-chloro-5-fluoro-3,4-dihydroxyphenyl)-2-(4-(3-(4-hydroxybenzamido)propyl)-2,3-dioxopiperazine-1-carboxamido)acetamido)-7-fluoro-2-hydroxy-3,4-dihydro-2H-benzo[e][1,2]oxaborinine-8-carboxylic acid]
[1]
  MIC: < 1 µg/mL
A. baumannii CDC-0083
  MIC: < 1 µg/mL
A. baumannii PBP1a
  EC50: < 10 µM
P. aeruginosa CDC-0054
  MIC: < 1 µg/mL
P. aeruginosa CDC-0110
  MIC: < 1 µg/mL
B. pseudomallei Bp82
  MIC: < 1 µg/mL
N. gonorrhoeae MS11
  MIC: 4 to 8 µg/mL (≈ 5.26 to 10.5 µM)
A. baumannii PBP2
  EC50: 10 to 50 µM
A. baumannii ATCC 19606
  MIC: < 1 µg/mL
P. aeruginosa ATCC 35151
  MIC: < 1 µg/mL
P. aeruginosa ATCC 27853
  MIC: < 1 µg/mL
N. gonorrhoeae CDC-0197
  MIC: 16 to 32 µg/mL (≈ 21.1 to 42.1 µM)
[2]
  MIC: < 1 µg/mL
[3]
  MIC: < 1 µg/mL
A. baumannii CDC-0045
  MIC: < 1 µg/mL

## O=C(NCCN1CCN(C(=O)NC(C(=O)N[C@H]2Cc3ccc(F)c(C(=O)O)c3OB2O)c2cc(F)c(O)c(O)c2Cl)C(=O)C1=O)c1ccncc1 (stereo partly drawn) [Example 216, (3R)-3-(2-(2-chloro-5-fluoro-3,4-dihydroxyphenyl)-2-(4-(2-(isonicotinamido)ethyl)-2,3-dioxopiperazine-1-carboxamido)acetamido)-7-fluoro-2-hydroxy-3,4-dihydro-2H-benzo[e][1,2]oxaborinine-8-carboxylic acid]
[1]
  MIC: < 1 µg/mL
A. baumannii CDC-0083
  MIC: > 128 µg/mL
A. baumannii PBP1a
  EC50: 10 to 50 µM
P. aeruginosa CDC-0054
  MIC: 8 to 16 µg/mL (≈ 10.9 to 21.9 µM)
P. aeruginosa CDC-0110
  MIC: < 1 µg/mL
B. pseudomallei Bp82
  MIC: < 1 µg/mL
N. gonorrhoeae MS11
  MIC: 16 to 32 µg/mL (≈ 21.9 to 43.8 µM)
A. baumannii PBP2
  EC50: 10 to 50 µM
A. baumannii ATCC 19606
  MIC: < 1 µg/mL
P. aeruginosa ATCC 35151
  MIC: < 1 µg/mL
P. aeruginosa ATCC 27853
  MIC: 2 to 4 µg/mL (≈ 2.74 to 5.47 µM)
N. gonorrhoeae CDC-0197
  MIC: 16 to 32 µg/mL (≈ 21.9 to 43.8 µM)
[2]
  MIC: < 1 µg/mL
[3]
  MIC: 2 to 4 µg/mL (≈ 2.74 to 5.47 µM)
A. baumannii CDC-0045
  MIC: 2 to 4 µg/mL (≈ 2.74 to 5.47 µM)
